Laboratory results as given in US20080287653A1, “METHOD FOR PRODUCING INHIBITORS AND INHIBITORS FORMED THEREFROM” (THE UNIVERSITY OF AKRON, priority 2007, published 2008).
Non-standard residues stand in square brackets, D forms with d. Residues, ends and D or L forms follow the SMILES beside them. Lys(Thioacetyl) = CC(=S)NCCCC[C@H](N)C(=O)O

What was measured:
SIRT3 = biological target: T1, SIRT3 (Homo sapiens, UniProt Q9NTG7); assay: HPLC-based SIRT3 inhibition assay with purified SIRT3; type: biochemical; conditions: SIRT3 vs SIRT2
T1 construct: purchased
T1 sequence (Q9NTG7 1-399): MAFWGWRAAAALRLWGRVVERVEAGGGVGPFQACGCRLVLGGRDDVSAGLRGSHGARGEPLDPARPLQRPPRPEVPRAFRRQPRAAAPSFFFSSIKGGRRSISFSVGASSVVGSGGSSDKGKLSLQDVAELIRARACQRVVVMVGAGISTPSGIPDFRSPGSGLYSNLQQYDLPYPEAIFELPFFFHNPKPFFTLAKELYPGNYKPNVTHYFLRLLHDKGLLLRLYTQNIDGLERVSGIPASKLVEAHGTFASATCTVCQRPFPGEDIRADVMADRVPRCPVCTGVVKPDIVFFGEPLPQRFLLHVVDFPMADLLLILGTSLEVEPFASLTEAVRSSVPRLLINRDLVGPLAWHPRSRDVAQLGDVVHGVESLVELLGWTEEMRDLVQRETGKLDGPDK
Method: (§1) Inhibition assays with purified SIRT1, SIRT2, and SIRT3. GST-SIRT1 that could be produced in a laboratory was used for the SIRT1 inhibition assay. SIRT2 and SIRT3 are obtainable from commercial sources known to those skilled in the art. Consistent HPLC-based assay procedures were used for the inhibition assays with SIRT1, SIRT2, and SIRT3. In brief, an inhibition assay solution had the following components: 25 mM (or 50 mM for SIRT2 assay) Tris.HCl (pH 8.0) 137 mM NaCl, 2.7 mM KCl, 1 mM MgCl2, 1 mg/mL BSA (SIGMA Cat. #A3803 with reduced fatty acid content, for SIRT2 assay only), 0.5 mM β-NAD^+, 0.3 mM peptide substrate (peptide 1b for SIRT1 and SIRT2 assays; peptide 3b for SIRT3 assay), an inhibitor (peptide 1a, 2, or 3a) with varied concentrations including 0, and an enzyme (GST-SIRT1, 0.15 μM; SIRT2, 0.3 μM; or SIRT3, 2.0 μM). […] An enzymatic reaction was initiated by the addition of an enzyme at 37° C. and was allowed to be incubated at 37° C.: 10 minutes as follows: for SIRT1 assay, or 60 minutes for SIRT2 and SIRT3 assays. […] The enzymatic deacetylation products (peptide 1c in SIRT1 and SIRT2 assays; peptide 3c in SIRT3 assay) were confirmed by their comigration with the chemically synthesized authentic samples and by MALDI-TOF mass spectrometric analysis, and were quantified by HPLC peak integration and comparison with those of synthetic authentic samples. […]

SIRT1, SIRT2, and SIRT3 = assay: Dethioacetylation of inhibitor peptides under the sirtuin inhibition assay conditions; type: biochemical, human; conditions: same assay conditions as SIRT1/SIRT2/SIRT3 inhibition assays
Method: Inhibition assays with purified SIRT1, SIRT2, and SIRT3. GST-SIRT1 that could be produced in a laboratory was used for the SIRT1 inhibition assay. SIRT2 and SIRT3 are obtainable from commercial sources known to those skilled in the art. Consistent HPLC-based assay procedures were used for the inhibition assays with SIRT1, SIRT2, and SIRT3. In brief, an inhibition assay solution had the following components: 25 mM (or 50 mM for SIRT2 assay) Tris.HCl (pH 8.0) 137 mM NaCl, 2.7 mM KCl, 1 mM MgCl2, 1 mg/mL BSA (SIGMA Cat. #A3803 with reduced fatty acid content, for SIRT2 assay only), 0.5 mM β-NAD^+, 0.3 mM peptide substrate (peptide 1b for SIRT1 and SIRT2 assays; peptide 3b for SIRT3 assay), an inhibitor (peptide 1a, 2, or 3a) with varied concentrations including 0, and an enzyme (GST-SIRT1, 0.15 μM; SIRT2, 0.3 μM; or SIRT3, 2.0 μM). […] An enzymatic reaction was initiated by the addition of an enzyme at 37° C. and was allowed to be incubated at 37° C.: 10 minutes as follows: for SIRT1 assay, or 60 minutes for SIRT2 and SIRT3 assays. Incubation was quenched at the indicated time with the following stop solution: 100 mM HCl and 0.16 M acetic acid. The conversion of the limiting substrate to the product was maintained at ≦12%. The quenched assay solutions were directly injected into a reversed-phase HPLC C18 column (100 Å, 0.46×25 cm), eluting with the following gradients of ddH2O containing 0.05% (v/v) trifluoroacetic acid (mobile phase A) and acetonitrile containing 0.05% (v/v) trifluoroacetic acid (mobile phase B): linear increase from 0% B to 35% B (for SIRT1 assay) or 40% B (for SIRT2 and SIRT3 assays) from 0-40 minutes (1 mL/min), and UV monitoring at 214 nm. The enzymatic deacetylation products (peptide 1c in SIRT1 and SIRT2 assays; peptide 3c in SIRT3 assay) were confirmed by their comigration with the chemically synthesized authentic samples and by MALDI-TOF mass spectrometric analysis, and were quantified by HPLC peak integration and comparison with those of synthetic authentic samples. […] All peptide stock solutions were prepared in ddH2O. […]

SIRT2 = biological target: T2, SIRT2 (Homo sapiens, UniProt Q8IXJ6); assay: HPLC-based SIRT2 inhibition assay with purified SIRT2; type: biochemical; conditions: SIRT2 vs SIRT3
T2 construct: purchased
T2 sequence (Q8IXJ6 1-389): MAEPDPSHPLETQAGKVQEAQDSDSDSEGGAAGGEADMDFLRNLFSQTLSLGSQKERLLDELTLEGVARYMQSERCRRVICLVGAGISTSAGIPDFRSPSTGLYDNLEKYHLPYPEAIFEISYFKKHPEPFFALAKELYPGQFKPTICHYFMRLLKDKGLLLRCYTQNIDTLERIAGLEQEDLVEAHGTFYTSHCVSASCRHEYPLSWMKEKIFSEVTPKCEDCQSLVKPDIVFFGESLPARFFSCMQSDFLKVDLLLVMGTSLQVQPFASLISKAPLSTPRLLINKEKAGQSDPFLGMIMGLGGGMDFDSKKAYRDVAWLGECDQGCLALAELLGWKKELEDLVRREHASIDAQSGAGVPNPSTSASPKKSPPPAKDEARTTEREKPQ
Method: as §1

SMILES: CC[C@H](C)[C@H](NC(=O)[C@@H](NC(=O)[C@H](CCCCNC(C)=S)NC(=O)[C@H](CC(=O)O)NC(=O)[C@H](CO)NC(=O)[C@@H]1CCCN1C(=O)[C@@H](N)CCSC)[C@@H](C)O)C(=O)NCC(=O)NCC(=O)O [Peptide 2] (H-MPSD[Lys(Thioacetyl)]TIGG-OH)
- inhibition weaker for SIRT3 as compared to SIRT2 (SIRT3): about 40 fold
- formation of dethioacetylated peptide under sirtuin inhibition assay conditions (SIRT1, SIRT2, and SIRT3): detectable formation

SMILES: CC[C@H](C)[C@H](NC(=O)[C@@H](NC(=O)[C@H](CCCCN)NC(=O)[C@H](CCCNC(=N)N)NC(=O)[C@H](CC(C)C)NC(=O)[C@H](CC(C)C)NC(=O)[C@H](CCCNC(=N)N)NC(=O)[C@H](CCCNC(=N)N)NC(=O)[C@H](CCSC)NC(=O)[C@@H](NC(=O)[C@H](CCCCNC(C)=S)NC(=O)CNC(=O)[C@H](CO)NC(=O)[C@H](CCCNC(=N)N)NC(=O)[C@@H](NC(=O)[C@H](CCCCN)NC(=O)[C@@H]1CCCN1C(=O)[C@H](CC(C)C)NC(=O)[C@H](CCCNC(=N)N)NC(=O)[C@@H](N)CCCCN)[C@@H](C)O)C(C)C)[C@@H](C)CC)C(=O)O [Peptide 3a] (H-KRLPKTRSG[Lys(Thioacetyl)]VMRRLLRKII-OH)
- inhibition potency for SIRT2 relative to SIRT3 (SIRT2): comparably potent inhibitor
- formation of dethioacetylated peptide under sirtuin inhibition assay conditions (SIRT1, SIRT2, and SIRT3): did not give rise to detectable formation
